Measured values as given in patent US20130203649A1, “INHIBITORS OF TLR SIGNALING BY TARGETING TIR DOMAIN INTERFACES” (UNIVERSITY OF MARYLAND, BALTIMORE, priority 2012, published 2013).
No end group written: not given here.

How the values were obtained:
MAPK (ERK, JNK, p38) = test: MAPK activation by peptide alone, macrophages without TLR agonist; assay type: cell-based, mouse; settings: 20 μM peptide, 1 hour incubation
Procedure: Neither TIRAP peptide activated ERK in cells incubated without a TLR agonist (not shown). […] The mechanism of this differential MAPK activation by select peptides, although interesting, is not understood at this time. Peptides TR9 and TR11 inhibited both ERK and JNK MAPKs (FIG. 1D). Peptide-induced inhibition of ERK persisted over a long period of time.
We next examined whether TRAM peptides inhibit the TLR4-mediated p38, ERK, and JNK MAPK activation. Murine macrophages pretreated with peptides for 30 min were challenged with LPS. Cell lysates were collected 30 min post-stimulation and analyzed for MAPK phosphorylation by Western analysis. Consistent with peptide effects on steady-state mRNA, both TM4 and TM6 inhibited activation of all three MAPKs (FIG. 5C). The inhibition of MAPKs by TM4 or TM6 was long lasting; it persisted for at least 1 h after LPS stimulation (data not shown). To characterize further the effects of TRAM peptides on MAPKs, murine macrophages were treated with TRAM peptides, but not challenged by LPS.

TLR2/TLR1 heterodimer [1] = molecular target: T1, TLR2/TLR1 heterodimer (Mus musculus, UniProt Q9QUN7); test: P3C-induced IL-6 and TNF-α secretion by macrophages (ELISA); assay type: cell-based; settings: supernatants 5 h after P3C 500 ng/ml
T1 construct: endogenous in cells; host or cells: thioglycollate-elicited mouse peritoneal macrophages
Procedure: FIG. 3. Effect of TIRAP decoy peptides on TLR2 signaling. Thioglycollate-elicited macrophages were incubated in the presence of 20 (black columns) or 40 μM (open columns) of a decoy peptide for 30 min prior to stimulation with P3C (500 ng/ml) (A and C) or P2C (50 ng/ml) (B). Cytokine mRNA expression was measured 1 h after TLR2 stimulation and is normalized to the expression of HPRT gene. C. IL-6 and TNF-α were measured by ELISA in macrophage supernatants collected 5 h after P3C (500 ng/ml) stimulation. D. Peptides TR3 and TR6 inhibit ERK activation induced by TLR2 agonist, P3C. ERK phosphorylation was measured by Western analysis in primary macrophage stimulated by P3C for 30 min.
Cytokine secretion was measured in supernatant samples collected at 6 or 24 h time points and stored at −80° C. Samples were analyzed by a multiplex assay at the University of Maryland Baltimore Cytokine Core Facility using a Luminex 100 reader and Softmax Pro software, or by ELISA kits for mouse IL-6 or TNF-α from BioLegend (San Diego, Calif.) and LT-4000 microplate reader.
Because of the role TRAP plays in TLR2 signaling, TIRAP TIR-derived decoy peptide effects on TLR2-induced cytokine mRNA expression were examined. […] To confirm the inhibitory effect of TR3 and TR6 on P3C-induced signaling, IL-6 and TNF-α concentration was measured in macrophage supernatants collected 5 h after stimulation of cells with P3C. […]

TLR2/TLR1 heterodimer [2] = molecular target: T1, TLR2/TLR1 heterodimer; test: P3C-induced cytokine mRNA expression in mouse macrophages; assay type: cell-based; settings: P3C 500 ng/ml, 1 h
Source text: Total cellular RNA was isolated using Tripure from Roche (San Francisco, Calif.) following manufacture's protocol. RNA was then reverse transcribed using AMV Reverse Transcriptase from Promega (Madison, Wis.) with poly-T priming as per manufacturer's directions. cDNA was then quantified by real-time PCR using Applied Biosystems Fast SYBR Green PCR Master Mix and an ABI Prism 7500HT cycler. Primers used for detection: hypoxanthine phosphoribosyltransferase (HPRT) (forward: […] (SEQ ID NO:51), reverse: […] (SEQ ID NO:52)), TNFα (forward: […] (SEQ ID NO:53), reverse: […] (SEQ ID NO:54)), IL-1β (forward: […] (SEQ ID NO:55), reverse: […] (SEQ ID NO:56)), IFNβ (forward: […] (SEQ ID NO:57), reverse: CTCGGACCACCATCCAGG (SEQ ID NO:58)) and RANTES (forward: […] (SEQ ID NO:59), reverse: […] (SEQ ID NO:60)). The primers were designed using Primer Express 2.0 (Applied Biosystems). Using HPRT as reference, the ΔCt method was used to calculate relative gene expression. One-way ANOVA was preformed, as well as Dunnett's multiple comparison post hoc test with a p≦0.01 selected as the level of significance.
Protein-free Escherichia coli K235 LPS was used at final concentration of 10 ng/ml to stimulate cells. S-[2,3-bis(palmitoyloxy)-(2-RS)-propyl]-N-palmitoyl-(R)-Cys-Ser-Lys4-OH (P3C) and S-[2,3-bis(palmitoyloxy)-(2-RS)-propyl]-[R]-Cys-Ser-Lys4-OH (P2C) were purchased from EMC microcollections GmbH (Tubingen, Germany) and used for cell stimulation at 500 and 50 ng/ml, respectively. Phospho-ERK1/2 and phospho-JNK1/2 rabbit Abs were obtained from Cell Signaling Technology, Inc. β-actin rabbit Ab were from SantaCruz Biotechnology, Inc.
Because of the role TRAP plays in TLR2 signaling, TIRAP TIR-derived decoy peptide effects on TLR2-induced cytokine mRNA expression were examined. Thioglycollate-elicited mouse macrophages were stimulated either by P2C, an agonist that induces signaling through TLR2/TLR6 heterodimerization, or P3C, a TLR2/TLR1 agonist, and effects of TIRAP TR-derived decoy peptides on induction of cytokine mRNA were examined. […] To confirm the inhibitory effect of TR3 and TR6 on P3C-induced signaling, IL-6 and TNF-α concentration was measured in macrophage supernatants collected 5 h after stimulation of cells with P3C. […] Concordantly, both TR3 and TR6 diminished the P3C-induced ERK phosphorylation (FIG. 3D).
C57BL/6J mice were obtained from The Jackson Laboratory (BarHarbor, Me.). Harvesting, culturing, and stimulation of peritoneal macrophages were described in previous publications (1, 18, 19). Escherichia coli K235 LPS (34) was used at the final concentration of 100 ng/ml. The 2,3-bis(palmitoyloxy)-(2-RS)-propyl-N-palmitoyl-(R)-Cys-Ser-Lys4-OH (P3C) and S[2,3-bis(palmitoyloxy)-(2-RS)-propyl]-[R]-Cys-Ser-Lys4-OH (P2C) (EMC Microcollections, Tubingen, Germany) were used at 500 and 50 ng/ml, respectively. Oligonucleotide (ODN) 1668 and low m.w. polyinosinic-polycytidylic acid [poly(I:C)] in complex with LyoVec were obtained from InvivoGen; these agonists were used at 2.5 μM and 400 ng/ml, respectively.

T1 sequence (Q9QUN7 25-784, one chain of several): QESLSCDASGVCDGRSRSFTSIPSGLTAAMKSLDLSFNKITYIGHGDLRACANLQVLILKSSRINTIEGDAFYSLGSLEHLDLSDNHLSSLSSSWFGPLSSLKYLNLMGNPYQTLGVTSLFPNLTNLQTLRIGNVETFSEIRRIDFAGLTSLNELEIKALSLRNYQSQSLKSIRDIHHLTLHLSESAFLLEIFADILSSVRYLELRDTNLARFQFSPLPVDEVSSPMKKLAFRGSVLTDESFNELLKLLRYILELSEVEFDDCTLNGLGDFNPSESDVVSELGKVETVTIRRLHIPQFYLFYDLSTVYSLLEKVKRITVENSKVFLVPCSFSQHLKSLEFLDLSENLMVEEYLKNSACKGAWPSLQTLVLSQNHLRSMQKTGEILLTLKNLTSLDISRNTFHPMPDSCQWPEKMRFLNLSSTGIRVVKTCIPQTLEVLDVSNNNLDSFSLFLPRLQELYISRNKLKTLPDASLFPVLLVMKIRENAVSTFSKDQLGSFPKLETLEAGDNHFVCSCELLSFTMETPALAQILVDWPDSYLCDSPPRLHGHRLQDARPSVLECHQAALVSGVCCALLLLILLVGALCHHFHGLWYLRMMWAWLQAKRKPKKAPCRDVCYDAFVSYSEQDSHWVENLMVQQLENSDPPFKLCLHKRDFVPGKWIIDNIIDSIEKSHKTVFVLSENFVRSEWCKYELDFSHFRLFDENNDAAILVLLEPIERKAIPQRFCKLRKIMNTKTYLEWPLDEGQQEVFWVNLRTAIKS

Question: How did the “JNK activation in macrophages without TLR agonist” value (MAPK (ERK, JNK, p38)) turn out when RQIKIWFQNRRMKWKKEGSQASLRCF [TR3] was run?
Answer: moderately activated

Question: What about the “P3C-induced IL-6 and TNF-α secretion” value (TLR2/TLR1 heterodimer [1]) of the same sequence?
Answer: profoundly inhibited

Question: And the “P3C-induced TNFα and IL-1β mRNA” value (TLR2/TLR1 heterodimer [2]; 20 μM peptide)?
Answer: inhibited

Question: And the “P3C-induced TNFα and IL-1β mRNA” value (TLR2/TLR1 heterodimer [2]; 40 μM peptide)?
Answer: profoundly inhibited

Question: Which results are given for RQIKIWFQNRRMKWKKPGFLRDPWCKYQML [TR6]?
Answer: JNK activation in macrophages without TLR agonist (MAPK (ERK, JNK, p38)): moderately activated; P3C-induced IL-6 and TNF-α secretion (TLR2/TLR1 heterodimer [1]): profoundly inhibited; P3C-induced TNFα and IL-1β mRNA (TLR2/TLR1 heterodimer [2]; 20 μM peptide): inhibited; P3C-induced TNFα and IL-1β mRNA (TLR2/TLR1 heterodimer [2]; 40 μM peptide): profoundly inhibited
